Data set [1] is described as follows: Stability study, comparative ubiquinol vs cocrystals: storage in a chamber, periodic analysis for ubiquinone and the form detected. The class given is physicochemical. To be noted: for stability at 25° C. measured by controlling the moment when ubiquinone was detected: "<" ubiquinone detected at least after the indicated days, ">" ubiquinone not detected yet. As for the experimental part: Powder X-Ray diffraction (PXRD) analyses were performed by sandwiching the powder samples between polyester films of 10 micrometres of thickness or polyamide (kapton) films of 15 micrometres of thickness and analysed in a PANalytical X′Pert PRO MPD q/q powder diffractometer of 240 millimetres of radius, in a configuration of convergent beam with a focalizing mirror and a flat sample transmission geometry, in the following experimental conditions: Cu Kα radiation (λ=1.5406 Å); Work power: 45 kV and 40 mA; Incident beam slits defining a beam height of 0.4 millimetres; Incident and diffracted beam 0.02 radians Soller slits; PIXcel detector: Active length=3.347°; 2θ/θ scans from 2 to 40° 2θ with a step size of 0.026° 2θ and a measuring time of 76 seconds per step.
The stability of the different forms has been studied under two experimental conditions. The samples were stored under both conditions inside a Series FD Binder chamber and they were analyzed periodically: • condition A: 25° C. and 57% of relative humidity; • condition B: 40° C. and 75% of relative humidity.
A saturated solution of sodium bromide salt (57% RH) and a saturated solution of sodium chloride (75% RH) were used to control relative humidity.
75% HR by indicating the form detected after the mentioned days. No ubiquinone was detected at least after 14 days.

Assay in data set [2]: as above
The settings on record: relative humidity not controlled, "<" ubiquinone detected at least after the indicated days, ">" ubiquinone not detected yet. The class given is physicochemical.

Setting [3] is: 25° C.-57% HR, 435 days, ^1: low crystallinity.
Where [4] appears, read: 40° C.-75% HR, 14 days, "—^1" (footnote *): the sample absorbed moisture showing a liquid texture.
[5] abbreviates: 40° C.-75% HR, 51 days, ^1: low crystallinity.

The values that follow come from patent US11731927B2, “Cocrystals of ubiquinol and compositions comprising them” (Center for Intelligent Research in Crystal Engineering, S.L., priority 2018, dated 2023).

Regarding `COc1c(O)c(C)c(CC=C(C)CCC=C(C)CCC=C(C)CCC=C(C)CCC=C(C)CCC=C(C)CCC=C(C)CCC=C(C)CCC=C(C)CCC=C(C)C)c(O)c1OC.O=C(O)c1cc(O)cc(O)c1` [P58-V, Cocrystal of Ubiquinol and 3,5-dihydroxybenzoic Acid], the stability result in data set [1] (compared with cocrystal P58-III) is recorded as “expected to be similar to cocrystal P58-III”.

On to `COc1c(O)c(C)c(CC=C(C)CCC=C(C)CCC=C(C)CCC=C(C)CCC=C(C)CCC=C(C)CCC=C(C)CCC=C(C)CCC=C(C)CCC=C(C)C)c(O)c1OC.O=C(O)c1cccc(O)c1` [P58-VI, Cocrystal of Ubiquinol and 3-Hydroxybenzoic Acid], for which the “stability at 25° C. measured by controlling the moment when ubiquinone was detected” value in data set [2] is on record as above 64 days; in data set [1] (25° C.-57% HR), above 434 days. Besides, the form detected result is given as “P58-VI” in data set [1] (25° C.-57% HR, 7 days); “P58-VI” in data set [1] (25° C.-57% HR, 14 days); “P58-VI” in data set [1] (25° C.-57% HR, 51 days); “P58-VI” in data set [1] (25° C.-57% HR, 119 days); “P58-VI” in data set [1] (25° C.-57% HR, 288 days); “P58-VI^1” in data set [1] (setting [3]). Also, the form detected entry is recorded as “P58-VI” in data set [1] (25° C.-57% HR, time 0); “P58-VI” in data set [1] (40° C.-75% HR, 7 days); “P58-VI” in data set [1] (setting [4]); “Ubiquinone^1” in data set [1] (setting [5]); “P58-VI” in data set [1] (40° C.-75% HR, time 0).

As for “Cocrystal Hydrate of Ubiquinol and 3,4-dihydroxybenzoic Acid [P58-III]”, the form detected result in data set [1] (25° C.-57% HR, 7 days) is given as “P58-III”; in data set [1] (25° C.-57% HR, 14 days) it was “P58-III”; in data set [1] (25° C.-57% HR, 51 days), “P58-III”; in data set [1] (25° C.-57% HR, 84 days), “P58-III”; in data set [1] (25° C.-57% HR, 119 days), “P58-III”; in data set [1] (25° C.-57% HR, 235 days), “P58-III”. In addition, the form detected result in data set [1] (25° C.-57% HR, 405 days) is recorded as “P58-III”; in data set [1] (setting [3]), “P58-III”; in data set [1] (25° C.-57% HR, 551 days, ^1: low crystallinity), “P58-III^1”; in data set [1] (25° C.-57% HR, time 0), “P58-III”; in data set [1] (40° C.-75% HR, 7 days), “P58-III”; in data set [1] (setting [4]) it was “P58-III”. Moreover, the form detected result in data set [1] (setting [5]) is on record as “P58-III”; in data set [1] (40° C.-75% HR, 235 days) it was “Ubiquinone”; in data set [1] (40° C.-75% HR, time 0), “P58-III”.

Ubiquinol [reference compound]: the “stability at 25° C. measured by controlling the moment when ubiquinone was detected” value is recorded as below 50 days in data set [2] and below 26 days in data set [1] (25° C.-57% HR). Moreover, the form detected result was “Form A” in data set [1] (25° C.-57% HR, 7 days); “mixture Form A and Form B” in data set [1] (25° C.-57% HR, 14 days); “mixture Form B and Ubiquinone” in data set [1] (25° C.-57% HR, 26 days); “mixture Form B and Ubiquinone” in data set [1] (25° C.-57% HR, 37 days); “mixture Form B and Ubiquinone^2” in data set [1] (25° C.-57% HR, 62 days, ^2: analyzed by 1H-NMR, confirms presence of Ubiquinone); “mixture Form B and Ubiquinone” in data set [1] (25° C.-57% HR, 130 days). In addition, the form detected entry in data set [1] (25° C.-57% HR, 300 days) is “mixture Form B and Ubiquinone”; in data set [1] (25° C.-57% HR, 446 days), “Ubiquinone (low crystallinity)”; in data set [1] (25° C.-57% HR, time 0), “Form A”; in data set [1] (40° C.-75% HR, 7 days), “Form B”; in data set [1] (40° C.-75% HR, time 0) it was “Form A”.
